Measured values taken from ChEMBL document CHEMBL3774388, “Synthesis and anti-cancer activity evaluation of 5-(2-carboxyethenyl)-isatin derivatives” (Eur J Med Chem, 2016).
Blank lines part the entries; values can stand above or below the molecule they belong to. Activity calls are given as the source filed them. No cut-off for these calls is given here.

Tests used:
[1] = test system: Jurkat; test: Anticancer activity against human Jurkat cells after 48 hrs by MTT assay; type: functional, cell-based
[2] = test system: Jurkat; test: Induction of apoptosis in human Jurkat cells assessed as increase in cells with reduction in mitochondrial membrane potential at 30 nM after 24 hrs by TMRM-staining based flow cytometric analysis ( Rvb = 7.8%); type: functional; set-up: scale not given: the % may be the effect or the level left
[3] = test system: MCF7; test: Anticancer activity against human MCF7 cells after 48 hrs by MTT assay; type: functional, cell-based; settings: MCF7, 48 h
[4] = test system: HeLa; test: Anticancer activity against human HeLa cells after 48 hrs by MTT assay; type: functional, cell-based
[5] = Anticancer activity against human DU145 cells after 48 hrs by MTT assay; type: functional, cell-based; settings: DU-145, 48 h
[6] = test system: A549; test: Anticancer activity against human A549 cells after 48 hrs by MTT assay; type: functional, cell-based; settings: A549, 48 h
[7] = test system: Jurkat; test: Induction of apoptosis in human Jurkat cells assessed as necrotic cells at 10 nM after 12 hrs by Annexin-V-FITC/PI-staining based flow cytometric analysis (reference value: 0.8%); type: functional
[8] = Anticancer activity against human BT474 cells after 48 hrs by MTT assay; type: functional, cell-based; settings: BT-474, 48 h
[9] = test system: A498; test: Anticancer activity against human A498 cells after 48 hrs by MTT assay; type: functional, cell-based; settings: A498, 48 h
[10] = test system: Jurkat; test: Induction of apoptosis in human Jurkat cells assessed as induction of cell shrinkage and blebbing at 10 and 30 nM incubated for 12 hrs by phase contrast microscopy; type: functional, cell-based
[11] = test system: Jurkat; test: Induction of apoptosis in human Jurkat cells assessed as late apoptotic cells at 10 nM after 12 hrs by Annexin-V-FITC/PI-staining based flow cytometric analysis relative to control; type: functional
[12] = test system: HUVEC; test: Cytotoxicity against HUVEC cells after 48 hrs by MTT assay; type: cell-based; settings: Homo sapiens
[13] = test system: Jurkat; test: Induction of apoptosis in human Jurkat cells assessed as early apoptotic cells at 10 nM after 12 hrs by Annexin-V-FITC/PI-staining based flow cytometric analysis relative to control; type: functional
[14] = test system: Jurkat; test: Induction of apoptosis in human Jurkat cells assessed as early apoptotic cells at 30 nM after 12 hrs by Annexin-V-FITC/PI-staining based flow cytometric analysis relative to control; type: functional
[15] = Anticancer activity against human SKOV3 cells after 48 hrs by MTT assay; type: functional, cell-based; settings: SK-OV-3, 48 h
[16] = test system: HEK293; test: Cytotoxicity against HEK293 cells after 48 hrs by MTT assay; type: cell-based; settings: Homo sapiens, HEK293, 48 h
[17] = test system: Jurkat; test: Induction of apoptosis in human Jurkat cells at 10 to 30 nM by Annexin-V-FITC/PI-staining based flow cytometric analysis; type: functional, cell-based; settings: TDE = time-dependent effect
[18] = test system: Jurkat; test: Induction of apoptosis in human Jurkat cells assessed as viable cells at 30 nM after 12 hrs by Annexin-V-FITC/PI-staining based flow cytometric analysis (reference value: 99.1%); type: functional; settings: read-out: Activity
[19] = Anticancer activity against human HCT116 cells after 48 hrs by MTT assay; type: functional, cell-based; settings: HCT-116, 48 h
[20] = test system: Jurkat; test: Induction of apoptosis in human Jurkat cells assessed as viable cells at 10 nM after 12 hrs by Annexin-V-FITC/PI-staining based flow cytometric analysis (reference value: 99.1%); type: functional; settings: read-out: Activity
[21] = test system: Jurkat; test: Induction of apoptosis in human Jurkat cells using Z-DEVD-R110 as substrate assessed as caspase3 activation at 30 nM incubated for 18 hrs measured at 48 hrs by fluorescence analysis; type: functional, cell-based
[22] = test system: Jurkat; test: Induction of apoptosis in human Jurkat cells assessed as increase in cells with reduction in mitochondrial membrane potential at 30 nM after 48 hrs by TMRM-staining based flow cytometric analysis ( Rvb = 7.8%); type: functional; set-up: scale not given: the % may be the effect or the level left
[23] = test system: Jurkat; test: Induction of apoptosis in human Jurkat cells assessed as necrotic cells at 30 nM after 12 hrs by Annexin-V-FITC/PI-staining based flow cytometric analysis (reference value: 0.8%); type: functional
[24] = Anticancer activity against human BT549 cells after 48 hrs by MTT assay; type: functional, cell-based; settings: BT-549, 48 h
[25] = test system: Jurkat; test: Induction of apoptosis in human Jurkat cells assessed as late apoptotic cells at 30 nM after 12 hrs by Annexin-V-FITC/PI-staining based flow cytometric analysis relative to control; type: functional
[26] = test system: NCI-H1299; test: Anticancer activity against human NCI-H1299 cells after 48 hrs by MTT assay; type: functional, cell-based; settings: NCI-H1299, 48 h

Structure (SMILES): COC(=O)/C=C/c1ccc2c(c1)C(=O)C(=O)N2CCOc1ccccc1
IC50 [1]: 200 nM

Structure (SMILES): CC(C)(C)OC(=O)/C=C/c1ccc2c(c1)C(=O)C(=O)N2Cc1ccc(Br)cc1
IC50 [1]: 1040 nM

Structure (SMILES): NC(=O)/C=C/c1ccc2c(c1)C(=O)C(=O)N2Cc1ccc(Br)cc1
IC50 [1]: 2340 nM

Structure (SMILES): COC(=O)/C=C/c1ccc2c(c1)C1(OCCO1)C(=O)N2Cc1ccc(OC)cc1
IC50 [1]: > 10000 nM

Structure (SMILES): COC(=O)/C=C/c1ccc2c(c1)C(=O)C(=O)N2Cc1ccc(Br)cc1
IC50 [1]: 60 nM

Structure (SMILES): O=C1Nc2ccc(Cl)cc2C1=O
IC50 [1]: > 10000 nM

Structure (SMILES): COC(=O)/C=C/c1ccc2c(c1)C(=O)C(=O)N2Cc1ccc(C(F)(F)F)cc1
IC50 [1]: 360 nM

Structure (SMILES): COC(=O)/C=C/c1ccc2c(c1)C(=O)C(=O)N2Cc1ccccc1
IC50 [1]: 70 nM

Structure (SMILES): COc1ccc(CN2C(=O)C(=O)c3cc(/C=C/C(=O)OCCO)ccc32)cc1
IC50 [1]: 500 nM

Structure (SMILES): Cc1ccc2c(c1)C(=O)C(=O)N2
IC50 [1]: > 10000 nM

Structure (SMILES): COC(=O)/C=C/c1ccc2c(c1)C(=O)C(=O)N2Cc1ccc(C)cc1
IC50 [1]: 50 nM

Structure (SMILES): CC[C@@]1(O)C(=O)OCc2c1cc1n(c2=O)Cc2cc3ccccc3nc2-1 [CAMPTOTHECIN]
IC50 [1]: 85 nM

Structure (SMILES): COC(=O)/C=C/c1ccc2c(c1)C(=O)C(=O)N2Cc1ccc(OC)cc1
Activity [2]: 32% | IC50 [3]: 80 nM | IC50 [4]: 9120 nM | IC50 [5]: > 10000 nM | IC50 [6]: > 10000 nM | Activity [7]: 1.8% | IC50 [8]: 5940 nM | IC50 [9]: 5300 nM | Activity [10]: Active | Activity [11]: 7.2% | IC50 [12]: > 10000 nM | IC50 [1]: 30 nM | Activity [13]: 28.5% | Activity [14]: 35.5% | IC50 [15]: > 10000 nM | IC50 [16]: > 10000 nM | Activity [17]: tde | viability at 0.03 µM [18]: 56.1% | IC50 [19]: 40 nM | viability at 0.01 µM [20]: 62.5% | Activity [21]: Active | Activity [22]: 81.9% | Activity [23]: 1.9% | IC50 [24]: 70 nM | Activity [25]: 6.5% | IC50 [26]: 30 nM

Structure (SMILES): COC(=O)/C=C/c1ccc2c(c1)N(Cc1ccc(OC)cc1)C(=O)C2=O
IC50 [1]: 3110 nM

Structure (SMILES): COc1ccc2c(c1)C(=O)C(=O)N2 [5-METHOXYISATIN]
IC50 [1]: > 10000 nM

Structure (SMILES): COC(=O)/C=C/c1ccc2c(c1)/C(=N/O)C(=O)N2Cc1ccc(Br)cc1
IC50 [1]: 5860 nM

Structure (SMILES): O=C1Nc2ccc(Br)cc2C1=O
IC50 [1]: > 10000 nM

Structure (SMILES): COC(=O)/C=C/c1cccc2c1N(Cc1ccc(OC)cc1)C(=O)C2=O
IC50 [1]: > 10000 nM

Structure (SMILES): COC(=O)/C=C/c1ccc2c(c1)C(=O)C(=O)N2Cc1ccccc1Br
IC50 [1]: 800 nM

Structure (SMILES): O=C1C(=O)N(Cc2ccc(Br)cc2)c2ccc(/C=C/C(=O)N3CCOCC3)cc21
IC50 [1]: 1430 nM

Structure (SMILES): O=C1C(=O)N(Cc2ccc(Br)cc2)c2ccc(/C=C/C(=O)N3CCCC3)cc21
IC50 [1]: 3190 nM

Structure (SMILES): COC(=O)/C=C/c1ccc2c(c1)CC(=O)N2Cc1ccc(OC)cc1
IC50 [1]: > 10000 nM

Structure (SMILES): COc1ccc(CN2C(=O)C(=O)c3cc(/C=C/C(=O)O)ccc32)cc1
IC50 [1]: > 10000 nM

Structure (SMILES): CCCCc1ccc2c(c1)C(=O)C(=O)N2
IC50 [1]: > 10000 nM

Structure (SMILES): COc1ccc(CN2C(=O)C(=O)c3cc(/C=C/C(=O)N4CCOCC4)ccc32)cc1
IC50 [1]: 4550 nM

Structure (SMILES): COC(=O)/C=C/c1ccc2c(c1)C(=O)C(=O)N2Cc1ccc(C#N)cc1
IC50 [1]: 80 nM

The remaining lines, values ahead:

IC50 [1]: 9110 nM
Structure (SMILES): COC(=O)/C=C/c1ccc2c(c1)/C(=N/O)C(=O)N2Cc1ccc(OC)cc1

IC50 [1]: 620 nM
Structure (SMILES): COC(=O)/C=C/c1ccc2c(c1)C(=O)C(=O)N2Cc1cc(C)cc(C)c1

IC50 [1]: > 10000 nM
Structure (SMILES): O=C1Nc2ccc(F)cc2C1=O [5-FLUOROISATIN]

IC50 [1]: 790 nM
Structure (SMILES): COC(=O)/C=C/c1cccc2c1C(=O)C(=O)N2Cc1ccc(OC)cc1

IC50 [1]: 2240 nM
Structure (SMILES): COc1ccc(CN2C(=O)C(=O)c3cc(/C=C/C(=O)N4CCCC4)ccc32)cc1

IC50 [1]: 310 nM
Structure (SMILES): COc1ccc(CN2C(=O)C(=O)c3cc(/C=C/C(=O)OC(C)(C)C)ccc32)cc1

IC50 [1]: 1610 nM
Structure (SMILES): COc1ccc(CN2C(=O)C(=O)c3cc(/C=C/C(N)=O)ccc32)cc1

IC50 [1]: > 10000 nM
Structure (SMILES): COC(=O)/C=C/c1ccc2c(c1)CC(=O)N2Cc1ccc(Br)cc1

IC50 [1]: 1230 nM
Structure (SMILES): COC(=O)/C=C/c1ccc2c(c1)C(O)C(=O)N2Cc1ccc(Br)cc1 (stereo unspecified)

IC50 [1]: 640 nM
Structure (SMILES): COC(=O)/C=C/c1ccc2c(c1)C(=O)C(=O)N2Cc1ccc2ccccc2c1

IC50 [1]: 260 nM
Structure (SMILES): COC(=O)/C=C/c1ccc2c(c1)C(=O)C(=O)N2Cc1ccc(Cl)cc1

IC50 [1]: 200 nM
Structure (SMILES): CCN1C(=O)C(=O)c2cc(/C=C/C(=O)OC)ccc21

IC50 [1]: 250 nM
Structure (SMILES): COC(=O)/C=C/c1ccc2c(c1)C(=O)C(=O)N2C

IC50 [1]: 200 nM
Structure (SMILES): COC(=O)/C=C/c1ccc2c(c1)C(=O)C(=O)N2

IC50 [1]: 400 nM
Structure (SMILES): O=C(/C=C/c1ccc2c(c1)C(=O)C(=O)N2Cc1ccc(Br)cc1)OCCO

IC50 [1]: 30 nM
Structure (SMILES): CCOC(=O)/C=C/c1ccc2c(c1)C(=O)C(=O)N2Cc1ccc(OC)cc1

IC50 [1]: > 10000 nM
Structure (SMILES): O=C1Nc2ccccc2C1=O [ISATIN]

IC50 [1]: > 10000 nM
Structure (SMILES): COC(=O)/C=C/c1ccc2c(c1)C1(OCCO1)C(=O)N2Cc1ccc(Br)cc1

IC50 [1]: 380 nM
Structure (SMILES): COC(=O)/C=C/c1ccc2c(c1)C(=O)C(=O)N2Cc1ccc(F)cc1

IC50 [1]: 850 nM
Structure (SMILES): COC(=O)/C=C/c1ccc2c(c1)C(=O)C(=O)N2Cc1ccc(Cl)c(Cl)c1

IC50 [1]: 220 nM
Structure (SMILES): CCCCOC(=O)/C=C/c1ccc2c(c1)C(=O)C(=O)N2Cc1ccc(OC)cc1

IC50 [1]: 70 nM
Structure (SMILES): CCOC(=O)/C=C/c1ccc2c(c1)C(=O)C(=O)N2Cc1ccc(Br)cc1

IC50 [1]: 120 nM
Structure (SMILES): COC(=O)/C=C/c1ccc2c(c1)C(=O)C(=O)N2Cc1cccc(Br)c1

IC50 [1]: 700 nM
Structure (SMILES): CCCCOC(=O)/C=C/c1ccc2c(c1)C(=O)C(=O)N2Cc1ccc(Br)cc1

IC50 [1]: 30 nM
Structure (SMILES): COC(=O)/C=C/c1ccc2c(c1)C(O)C(=O)N2Cc1ccc(OC)cc1 (stereo unspecified)
